Reference: BigSolDB 2.1

COC1=CC(=O)C[C@@H](C)[C@]12Oc1c(Cl)c(OC)cc(OC)c1C2=O
solubility (mole fraction)
Conditions | 278.15 K | 283.15 K | 288.15 K | 293.15 K | 298.15 K | 303.15 K | 308.15 K | 313.15 K | 318.15 K | 323.15 K
in DMF | 0.00484 | 0.00541 | 0.0061 | 0.00703 | 0.00811 | 0.00933 | 0.0106 | 0.012 | 0.0136 | 0.0155
in NMP | 0.0324 | 0.0344 | 0.0369 | 0.0394 | 0.0425 | 0.045 | 0.0479 | 0.0511 | 0.0541 | 0.0573
in acetonitrile | 0.00331 | 0.00369 | 0.00418 | 0.00473 | 0.00536 | 0.00611 | 0.00697 | 0.00795 | 0.00899 | 0.0102
in ethanol | 0.000218 | 0.000255 | 0.000303 | 0.00037 | 0.000446 | 0.000542 | 0.00065 | 0.000779 | 0.000928 | 0.00112
in methanol | 0.000246 | 0.00028 | 0.000332 | 0.000413 | 0.000517 | 0.000632 | 0.00077 | 0.000929 | 0.00111 | 0.00133
in water | 1.93e-07 | 2.5e-07 | 3.08e-07 | 3.86e-07 | 4.7e-07 | 5.7e-07 | 7.18e-07 | 8.91e-07 | 1.1e-06 | 1.36e-06
